# Patent US4980362A, “4-substituted-2-alkoxytetrahydrofuran derivatives” (J. Uriach & CIA. S.A., priority 1990, dated 1990)
# Legend:
# [1] = test system: platelet aggregation induced by PAF; assay: Test 1: Inhibition of platelet aggregation induced by PAF; assay type: cell-based, rabbit (male New Zealand albino); conditions: rabbit platelet rich plasma, PAF (C18) 16 nM final, Born nephelometric technique
# Experimental: Test 1: Inhibition of platelet aggregation induced by PAF.
# The blood is obtained by cardiac puncture of male New Zealand albino rabbits (between 2 and 2.5 Kg of weight) and coagulation is prevented by adding 1 part of 3.16% sodium citrate dihydrate in 9 parts of blood. The platelet rich plasma (PRP) is prepared by blood centrifugation at 250×g for 10 min. at 4° C. and it is diluted with platelet poor plasma (PPP) by additional centrifugation at 3000×g for 10 min. The amount of platelets is adjusted to […]. The platelet aggregation induced by PAF (C18; prepared in our laboratory) (16 nM, final) is determined by the Born nephelometric technique (J. Physiol., 1962, 162, 67) using a aggregometer Chrono-log 500. The activities of the inhibitors are expressed as IC50, that is to say the concentration of the drug needed to inhibit the platelet aggregation by 50%.
# [2] = test system: hypotension induced by PAF; assay: Test 2: Inhibition of the hypotensive effect induced by PAF in normotense rats; assay type: in vivo, rat (male Sprage Dawley); conditions: anesthetized male rats, compound 3 min before PAF 0.5 mcg/Kg i.v., text calls it IC50; for CI50: i.v.; for ED50: Rattus norvegicus, iv, read-out: CI50 (the source's name)
# Experimental: Test 2 - Inhibition of the hypotensive effect induced by PAF in normotense rats.
# Male Sprage Dawley rats, of 180-220 g of weight, anesthetized with sodium pentobarbital (50 mg/Kg, i.p. 1 mL/100 g) have been used. In order to measure the average arterial pressure, a polyethylene catheter is introduced into the carotid artery. The arterial pressure is recorded with the help of a transducer connected with a R611 Beckman polygraph. The tested compounds are administered through the femoral vein 3 min before the injection of PAF (0.5 mcg/Kg, i.v.).
# PAF-induced mortality = assay: Test 3: PAF-induced mortality in mice (p.o.); assay type: in vivo, mouse (Swiss); conditions: 1 hour before C18-PAF 100 mcg/kg plus propanolol 1 mg/kg i.v., inhibition of mortality, observed 2 hours after PAF; for ED50: Mus musculus, po, 2 h, read-out: ID50 (the source's name)
# Experimental: Finally, certain compounds of the present invention show an improved oral activity with regard to other chemically related PAF-antagonists reported in the literature, such as CV-6209, (disclosed in EP No. 157609) as shown by test 3:
# Test 3 - PAF-induced mortality in mice (p.o.)
# The experiment is carried out according to the method of Young et al. (Prostaglandins, 1985, 30, 545-551). Groups of 10 Swiss mice weighing 22-26 g are used. 100 mcg/kg of C18 -PAF plus 1 mg/kg of propanolol are intravenously administered in a lateral tail vein 1 hour after the oral administration of test compounds (0.1 mL/10 g). Every animal is observed 2 hours after the PAF injection. Percent inhibition of mortality due to treatments in comparison with control group are recorded. Results are given as ID50 values (mg/kg) in table 3.
# [3] = Oryctolagus cuniculus, Platelet
Compound,IC50 [1] [nM],CI50 [2] [mg/kg],ID50 (PAF-induced mortality; 120 min) [mg/kg],"IC50 [1, 3] [nM]",ED50 (PAF-induced mortality) [mg/kg],ED50 [2] [mg/kg]
"CCCCCCCCCCCCCCCCCCOC1CC(COC(=O)N(Cc2cccc[n+]2CC)C(C)=O)CO1 (racemic) [Compound 5, (±)-cis,trans-1-ethyl-2-[N-acetyl-N-[[[(2-octadecyloxytetrahydrofuran-4-yl)methoxy[carbonyl[amino]methyl]pyridinium chloride]",12,0.024,19,,,
"CCCCCCCCCCCCCCCCCCOC1CC(COC(=O)N(Cc2cccc[n+]2CC)C(C)=O)CO1 (racemic) [Compound 4, (±)-cis,trans-1-ethyl-2-[N-acetyl-N-[[[(2-octadecyloxytetrahydrofuran-4-yl)methoxy]carbonyl]amino]methyl]pyridinium iodide]",,0.053,,16,14,
"CCCCCCCCCCCCCCCCCCNC(=O)OCC(COC(=O)N(Cc1cccc[n+]1CC)C(C)=O)OC (stereo not shown) [CV-6209, reference compound]",,,,,70,
"CCOC1CC(COC(=O)N(Cc2cccc[n+]2CC)C(C)=O)CO1 (racemic) [Compound 11, (±)-cis,trans-1-ethyl-2-[N-acetyl-N-[[[(2-ethoxytetrahydrofuran-4-yl)methoxy]carbonyl]amino]methyl]pyridinium iodide]",,,,2900,,2.3
"CCCCCCCCCCCCCCCCCCOC1CC(COC(=O)N(Cc2cccc[n+]2C)C(C)=O)CO1 (racemic) [Compound 3, (±)-cis,trans-1-methyl-2-[N-acetyl-N-[[[(2-octadecyloxytetrahydrofuran-4-yl)methoxy]carbonyl]amino]methyl]pyridinium iodide]",,,,45,> 100,0.08
"CC[n+]1ccccc1CN(C(C)=O)C(=O)OCC1COC(OCCCc2ccccc2)C1 (racemic) [Compound 17, (±)-cis,trans-1-ethyl-2-[N-acetyl-N-[[[(2-(3-phenylpropoxy)tetrahydrofuran-4-yl)methoxy]carbonyl]amino]methyl]pyridinium iodide]",,,,190,,0.12
"CCCCCCCCCCCCCCCCOC1CC(COC(=O)N(Cc2cccc[n+]2CC)C(C)=O)CO1 (racemic) [Compound 8, (±)-cis,trans-1-ethyl-2-[N-acetyl-N-[[[(2-hexadecyloxytetrahydrofuran-4-yl)methoxy]carbonyl]amino]methyl]pyridinium iodide]",,,,12,80,0.01
"CC[n+]1ccccc1CN(C(C)=O)C(=O)OCC1COC(OCCC(C)C)C1 (racemic) [Compound 14, (±)-cis,trans-1-ethyl-2-[N-acetyl-N-[[[(2-(3-methylbutoxy)tetrahydrofuran-4-yl)methoxy]carbonyl]amino]methyl]pyridinium iodide]",,,,700,,0.21
